Source: patent US9963445B2, “Chemical compounds” (SYNGENTA PARTICIPATIONS AG, priority 2013, dated 2018)

Assays:
Type in all cases: in vivo
Amaranthus retroflexus [1] = experiment: Post-emergence herbicidal activity, glasshouse pot test; set-up: key: 0 = no damage to plant, 5 = total damage to plant; settings: Application post-emergence, rate 1000 g/ha, evaluated after 13 days
Procedure, shortened: (§1)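 Seeds sown in standard soil in pots, grown 8 days in glasshouse (24/16 °C day/night, 14 h light, 65% humidity), then sprayed with aqueous solution from active ingredient formulated in acetone/water (50:50) with 0.5% Tween 20. Plants regrown under same conditions, watered twice daily; damage scored after 13 days (0 none–5 total).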

Alopecurus myosuroides [2] = experiment: as above; set-up: key: 0 = no damage to plant, 5 = total damage to plant; settings: Application post-emergence, rate 1000 g/ha, evaluated after 13 days
Procedure, shortened: as §1

Abutilon theophrasti [3] = experiment: as above; set-up: key: 0 = no damage to plant, 5 = total damage to plant; settings: Application post-emergence, rate 1000 g/ha, evaluated after 13 days
Procedure, shortened: as §1

Setaria faberi [4] = experiment: as above; set-up: key: 0 = no damage to plant, 5 = total damage to plant; settings: Application post-emergence, rate 1000 g/ha, evaluated after 13 days
Procedure, shortened: as §1

Echinochloa crus-galli [5] = experiment: as above; set-up: key: 0 = no damage to plant, 5 = total damage to plant; settings: Application post-emergence, rate 1000 g/ha, evaluated after 13 days
Procedure, shortened: as §1

zea mays [6] = experiment: as above; set-up: key: 0 = no damage to plant, 5 = total damage to plant; settings: Application post-emergence, rate 1000 g/ha, evaluated after 13 days
Procedure, shortened: as §1

Amaranthus retroflexus [7] = experiment: Pre-emergence herbicidal activity, glasshouse pot test; settings: pre-emergence spray, rate 1000 g/ha, evaluated after 13 days, scale 0-5
Procedure, shortened: (§2)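 Pots of seeded soil were sprayed one day after sowing (pre-emergence) with compound formulated in acetone/water 50:50 with 0.5% Tween 20. Plants were grown in a glasshouse at 24/16 °C day/night, 14 h light, 65% humidity. Damage was scored after 13 days on a 0–5 scale (5 = total damage).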

Alopecurus myosuroides [8] = experiment: as above; settings: pre-emergence spray, rate 1000 g/ha, evaluated after 13 days, scale 0-5
Procedure, shortened: as §2

Abutilon theophrasti [9] = experiment: as above; settings: pre-emergence spray, rate 1000 g/ha, evaluated after 13 days, scale 0-5
Procedure, shortened: as §2

Setaria faberi [10] = experiment: as above; settings: pre-emergence spray, rate 1000 g/ha, evaluated after 13 days, scale 0-5
Procedure, shortened: as §2

Echinochloa crus-galli [11] = experiment: as above; settings: pre-emergence spray, rate 1000 g/ha, evaluated after 13 days, scale 0-5
Procedure, shortened: as §2

zea mays [12] = experiment: as above; settings: pre-emergence spray, rate 1000 g/ha, evaluated after 13 days, scale 0-5
Procedure, shortened: as §2

SMILES | AMARE herbicidal damage score (Amaranthus retroflexus [1]) | ALOMY herbicidal damage score (Alopecurus myosuroides [2]) | ABUTH herbicidal damage score (Abutilon theophrasti [3]) | SETFA herbicidal damage score (Setaria faberi [4]) | ECHCG herbicidal damage score (Echinochloa crus-galli [5]) | ZEAMX herbicidal damage score (zea mays [6]) | AMARE damage score, application pre-emergence (Amaranthus retroflexus [7]) | ALOMY damage score, application pre-emergence (Alopecurus myosuroides [8]) | ABUTH damage score, application pre-emergence (Abutilon theophrasti [9]) | SETFA damage score, application pre-emergence (Setaria faberi [10]) | ECHCG damage score, application pre-emergence (Echinochloa crus-galli [11]) | ZEAMX damage score, application pre-emergence (zea mays [12])
CC1=C(Cl)C(=O)N(c2cc(C(F)(F)F)c(-c3ccc(Cl)cc3)cn2)C1O (stereo not drawn) [AF87] | 5 | 4 | 4 | 5 | 4 | 3 | 2 | 2 | 0 | 3 | 0 | 0
CC1=C(Cl)C(=O)N(c2cc(C(F)(F)F)c(C(=O)NC(C)(C)C)cn2)C1O (stereo not drawn) [AF88] | 5 | 5 | 5 | 5 | 5 | 5 | 5 | 4 | 5 | 5 | 5 | 4
CC1=C(Cl)C(=O)N(c2cc3c(cn2)CCCC3)C1O (stereo not drawn) [AF89] | 5 | 3 | 5 | 5 | 5 | 1 | 2 | 2 | 1 | 5 | 3 | 1
CC1=C(Cl)C(=O)N(c2cc(C(F)(F)F)c(C(=O)OC(C)C)cn2)C1O (stereo not drawn) [AF92] | 5 | 4 | 5 | 5 | 5 | 4 | 4 | 4 | 2 | 5 | 3 | 3
CC1=C(Cl)C(=O)N(c2cc(C(F)(F)F)c(-c3ccc(C#N)cc3)cn2)C1O (stereo not drawn) [AF93] | 5 | 4 | 4 | 4 | 4 | 2 | 2 | 0 | 1 | 0 | 0 | 0
CCC(=O)OC1C(C)=C(Cl)C(=O)N1c1cc(C(F)(F)F)c(-c2cccc(C#N)c2)cn1 (stereo not drawn) [AF94] | 4 | 3 | 3 | 3 | 3 | 1 | 3 | 0 | 0 | 0 | 0 | 0
CC1=C(Cl)C(=O)N(c2cc(C(F)(F)F)c(-c3cccc(C#N)c3)cn2)C1O (stereo not drawn) [AF95] | 5 | 2 | 3 | 4 | 2 | 2 | 0 | 0 | 0 | 0 | 0 | 0
CCN(CC)C(=O)c1cnc(N2C(=O)C(Cl)=C(C)C2O)cc1C(F)(F)F (stereo not drawn) [AF96] | 0 | 0 | 0 | 0 | 0 | 1 | 0 | 0 | 0 | 0 | 0 | 0
CC1=C(Cl)C(=O)N(c2cc(C(F)(F)Cl)ccn2)C1O (stereo not drawn) [AF98] | 5 | 5 | 5 | 5 | 5 | 3 | 5 | 3 | 1 | 5 | 5 | 2
CCc1cc(N2C(=O)C(Cl)=C(C)C2O)ncc1Br (stereo not drawn) [AF99] | 5 | 5 | 5 | 4 | 5 | 1 | 2 | 2 | 0 | 1 | 2 | 1
CC1=C(Cl)C(=O)N(c2cc(C(C)(C)C#N)ccn2)C1O (stereo not drawn) [AF100] | 5 | 5 | 5 | 5 | 5 | 4 | 5 | 4 | 3 | 5 | 5 | 3
CCOC(=O)c1cnc(N2C(=O)C(Cl)=C(C)C2O)cc1Cl (stereo not drawn) [AF101] | 5 | 2 | 5 | 5 | 3 | 1 | 2 | 0 | 1 | 0 | 0 | 0
CC1=C(Cl)C(=O)N(c2ccc(C(C)(C)C#N)cn2)C1O (stereo not drawn) [AF102] | 5 | 5 | 5 | 5 | 5 | 5 | 5 | 3 | 5 | 4 | 5 | 3
CC1=C(Cl)C(=O)N(c2cc(C(C)C)c(C(=O)NC(C)(C)C)cn2)C1O (stereo not drawn) [AF103] | 5 | 4 | 5 | 5 | 5 | 3 | 5 | 4 | 5 | 4 | 4 | 3
CC1=C(Cl)C(=O)N(c2cc(C)c(-c3ccsc3)cn2)C1O (stereo not drawn) [AF104] | 5 | 2 | 4 | 5 | 5 | 0 | 5 | 0 | 1 | 1 | 1 | 0
CC1=C(Cl)C(=O)N(c2cc(C(F)(F)F)c(-c3nn(C)c4ccccc34)cn2)C1O (stereo not drawn) [AF105] | 5 | 3 | 5 | 4 | 2 | 0 | 0 | 0 | 0 | 0 | 0 | 0
